Measured values reported in patent publication US20120295917A1, “IMATINIB DICHL[…] ANTI-CANCER AGENT COMPRISING THE SAME” (CELLTRION PHARM, INC., priority 2009, published 2012).

Tests used:
[1] = Hygroscopicity test (Karl-Fischer titrator); format: physicochemical; conditions: 40° C., relative humidity 75%
[2] = tested on: colorectal adenocarcinoma cells (HT29); test: Cytotoxicity test (MTT); format: cell-based; conditions: for absorbance value based on 100% of the absorbance value for the control: HT29, 72 hours, MTT, 570 nm, mean of n=3
Experimental: Using a medium containing 10% of fetal bovine serum (FBS), Rosewell Park Memorial Institute medium (RPMI) and 1% of penicillin/streptomycin, a 2×10^5 cells/ml suspension of colorectal adenocarcinoma cells (HT29) was prepared. The prepared suspension was seeded into each well of […] and cultured for 24 hours. Each sample was added to three wells and cultured (n=3).
The medium was removed from each well after 24 hours and the wells were washed with phosphate buffered saline (PBS). […] 100 µl of each prepared solution was seeded into the wells and cultured at 37° C. for 72 hours.
10 μl of 3-(4,5-dimethylthiazol-2-yl)-2,5-diphenyltetrazolium bromide (MTT) was added to each sample and cultured for 4 hours. The absorbance of the solution was measured at 570 nm using Enzyme-linked immunosorbent assay (ELISA).

[3] = accelerated condition for 28 days; in words
Experimental: Particularly, each imatinib acid addition salt was stored in a sealed state under an accelerated condition (a temperature of 40° C. and a relative humidity of 75%), and after 0 (zero), 3, 7, 14 and 28 days, the remaining rate of the active ingredient was analyzed with a high performance liquid chromatography (HPLC).

rats = conditions: cited from earlier work

| SMILES | amount of moisture contained in the compound ([1]; 2 hours) [weight %] | amount of moisture contained in the compound ([1]; 8 hours) [weight %] | amount of moisture contained in the compound ([1]; 24 hours) [weight %] | amount of moisture contained in the compound ([1]; 3 days) [weight %] | amount of moisture contained in the compound ([1]; Initial) [weight %] | anti-cancer effects compared with imatinib methanesulfonate (β crystalline form) ([2]; HT29 cytotoxicity, in words) | stability compared with imatinib methanesulfonate (β crystalline form) [3] | LD50 (the lethal dose causing death in 50% of rats on oral administration) (rats) | absorbance value based on 100% of the absorbance value for the control ([2]; 1 nM) [%] | absorbance value based on 100% of the absorbance value for the control ([2]; 10 nM) [%] | absorbance value based on 100% of the absorbance value for the control ([2]; 100 nM) [%] |
| --- | --- | --- | --- | --- | --- | --- | --- | --- | --- | --- | --- |
| CS(=O)(=O)O.Cc1ccc(NC(=O)c2ccc(CN3CCN(C)CC3)cc2)cc1Nc1nccc(-c2cccnc2)n1 [Imatinib Methanesulfonate, reference compound] | 0.89 | 0.86 | 0.84 | 1.11 | 0.83 |  |  |  |  |  |  |
| Cc1ccc(NC(=O)c2ccc(CN3CCN(C)CC3)cc2)cc1Nc1nccc(-c2cccnc2)n1 [Imatinib dichloroacetate (crystalline form I)] | 1.14 | 1.18 | 1.14 | 1.26 | 1.14 | more potent anti-cancer effects | same or higher level of stability |  |  |  |  |
| Cc1ccc(NC(=O)c2ccc(CN3CCN(C)CC3)cc2)cc1Nc1nccc(-c2cccnc2)n1 [Imatinib dichloroacetate (crystalline form II)] | 0.83 | 0.87 | 0.86 | 0.95 | 0.85 |  | same or higher level of stability |  |  |  |  |
| O=C(O)C(Cl)Cl [dichloroacetic acid] |  |  |  |  |  |  |  | 2,820 mg/kg | 101.2 | 98.6 | 95.2 |
